The results in this text go back to patent US20260317304A1, “TEAD INHIBITORS AND METHODS OF USE” (Sporos BioDiscovery, Inc., priority 2022, published 2026).

Each structure is given as a SMILES string.

As usually defined, the T/C is the result in the treated group divided by that in the control group, in per cent.

The subject of the experiment is MSTO-211H xenograft. The experiment can be described thus: Mouse xenograft MSTO-211H tumors, study part 3. It counts as in vivo, BALB/c nude mice. To be noted: PO. The source says:
This study evaluated the in vivo anti-tumor efficacy of test compounds in BALB/c nude mice for treatment of MSTO-211H xenograft of lung cancer.
• Species: Mus Musculus • Strain: BALB/c nude • Age: 6-8 weeks • Sex: female • Body weight: 18-22 g • Number of animals inoculated with tumor: 80 mice • Number of animals enrolled in the treatment: 36 mice • Number of unenrolled animals: 44 mice • Animal supplier: Beijing Vital River Biotechnology Experimental Animal Co. Ltd Certification number: 20170011010591
The MSTO-211H tumor cells were maintained in RPMI 1640 medium supplemented with 10% Fetal bovine serum and 1% Antibiotic-Antimycotic at 37° C. in an atmosphere of 5% CO2 in air. The tumor cells were routinely subcultured twice weekly by trypsin-EDTA. The cells growing in an exponential growth phase with 95% cell survival or above were harvested, and counted for tumor inoculation.
Each mouse was inoculated subcutaneously at the right flank with MSTO-211H tumor cells (5×10^6+50% matrigel/0.2 mL) for tumor development. Animals were marked with earrings with unique 6 significant figure number for identification. The treatments of part 1 were started on day 5 after cell inoculation when the average tumor volume reached 181 mm^3. The treatments of part 2 were started on day 16 after cell inoculation when the average tumor volume reached 254 mm^3. The treatments of part 3 were started on day 33 after cell inoculation when the average tumor volume reached 969 mm^3.
The major endpoint was to determine if the tumor growth could be delayed. Tumor volume was measured twice a week in two dimensions using a caliper, and the volume was expressed in mm^3 using the formula: V=0.5 a×b^2 where a and b are the long and short diameters of the tumor, respectively. The tumor size was then used for calculations of T/C value. The TGI value (in percent) or the T/C value (in percent) is an indication of antitumor effectiveness; T and C are the mean tumor volumes or tumor weights of the treated and control groups, respectively, on a given day.
TGI was calculated for each group using the formula: TGI (%)=[1−(Ti−T0)/(Vi−V0)]×100; Ti is the average tumor volume of a treatment group on a given day, T0 is the average tumor volume of the treatment group on the day of treatment start, Vi is the average tumor volume of the vehicle control group on the same day with Ti, and V0 is the average tumor volume of the vehicle group on the day of treatment start.
Relative T/C (%)=TRTV/CRTV×100 (RTV (%)=Vt/V0×100, Vt is the average tumor volume on a given day, V0 is the average tumor volume on the first day of treatment. TRTV is the RTV of a treatment group, and the CRTV is the RTV of the vehicle control group.)
The antitumor effectiveness of part 3 study was analyzed on PG-D13 when vehicle group reached 1791 mm^3.
Summary statistics, including mean and the standard error of the mean (SEM), were provided for the tumor volume of each group at each time point.
Statistical analysis of difference in tumor volume among the groups was conducted on the data obtained at the end of the study.
One-tailed T test was performed to compare tumor volumes between two groups. All data are analyzed using GraphPad Prism 6.0. p<0.05 is considered to be statistically significant.

The mark [1] stands for this setting: part 3, day 13, 12.5 mg/kg, BID.

Regarding `Cn1nnc(-c2cc([C@]3(C)CCNC3=O)ccc2Nc2ccc(C(F)(F)F)cc2)n1` (stereo in doubt) [Compound 20, 3-methyl-3-(3-(2-methyl-2H-tetrazol-5-yl)-4-((4-(trifluoromethyl)phenyl)amino)phenyl) pyrrolidin-2-one], the Tumor size (part 3, day 0, 12.5 mg/kg, BID) is 963 ± 136 mm^3; the Tumor size (part 3, day 3, 12.5 mg/kg, BID) worked out at 740 ± 122 mm^3; the Tumor size (part 3, day 6, 12.5 mg/kg, BID) was determined as 591 ± 61 mm^3; the Tumor size (part 3, day 10, 12.5 mg/kg, BID) was 444 ± 36 mm^3; the Tumor size under setting [1] was determined as 339 ± 51 mm^3. Also, under setting [1], the T/C worked out at 18.94%. Further, the TGI under setting [1] stood at 177.56%. Also, the “Tumor Volume” value (part 3, day 13, 12.5 mg/kg, BID (Table 18)) stood at 339 ± 51 mm^3.
